These results are taken from ChEMBL document CHEMBL2029232, “Identification of small-molecule inhibitors of the steroidogenic acute regulatory protein (STARD1) by structure-based design” (Bioorg Med Chem Lett, 2012).

Calls of active or inactive are those of the source. The calls are words filed in the database; no cut-off is given here.

The target in series [1] is T1, Steroidogenic acute regulatory protein, mitochondrial (Mus musculus) (UniProt P51557).
T1 sequence (whole entry): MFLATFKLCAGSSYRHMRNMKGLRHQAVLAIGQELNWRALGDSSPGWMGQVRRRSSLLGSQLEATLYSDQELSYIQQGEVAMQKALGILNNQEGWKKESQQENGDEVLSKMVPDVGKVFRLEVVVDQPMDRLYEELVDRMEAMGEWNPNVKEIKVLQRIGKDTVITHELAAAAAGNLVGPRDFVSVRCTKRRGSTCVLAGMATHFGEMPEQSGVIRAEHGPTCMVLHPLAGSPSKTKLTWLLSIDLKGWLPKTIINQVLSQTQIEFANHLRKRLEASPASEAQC
Briefly: Inhibition of STAR in mouse MA-10 cells assessed as inhibition of dbcAMP-stimulated […] at 10 uM after 2 hrs by RIA. The format is cell-based.

Series [2] is described as follows: Inhibition of 22R-hydroxycholesterol-induced steroidogenesis in mouse MA-10 cells assessed as progesterone synthesis per mg of protein at 10 uM after 2 hrs by RIA. The format is cell-based. As to conditions: ma-10, 2 h.

Take `C[C@H](CCC(=O)O)[C@H]1CC[C@H]2[C@@H]3CC=C4C[C@@H](O)CC[C@]4(C)[C@H]3CC[C@]12C`: in series [1], the inhibition entry is “inactive”.

As for `CC(=O)O[C@H]1CC[C@@]2(C)C(=CC[C@H]3[C@@H]4CC(O)[C@H]([C@H](C)OC(C)=O)[C@@]4(C)CC[C@@H]32)C1` (stereo partly drawn), the inhibition result in series [1] was “inactive”.

With `C[C@]12CC[C@H]3[C@@H](CC=C4C[C@@H](O)CC[C@@]43C)[C@@H]1C/C(=C/c1ccc(OC(F)F)cc1)[C@@H]2O`, the inhibition in series [1] was found to be 50%. Besides, the Activity in series [2] worked out at 923 ng.

With `C[C@]12CC(O)[C@H]3[C@@H](CCC4=CC(=O)CC[C@@]43C)[C@@H]1CC[C@@H]2C(=O)O` (stereo partly drawn), in series [1], the inhibition entry is “inactive”.

For the compound `CC(=O)OCC(=O)[C@H]1CC[C@H]2[C@@H]3CC=C4C[C@@H](O)CC[C@]4(C)[C@H]3CC[C@]12C`, in series [1], the inhibition amounted to 50%. In series [2], the Activity was determined as 1301 ng.

With `C[C@]12CCC(=O)C=C1CC[C@@H]1[C@@H]2[C@@H](O)C[C@@]2(C)[C@H]1CC[C@]2(O)C(=O)CO`, in series [1], the inhibition result was “inactive”.
